#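 Following 48 hours of exposure in 96-well plates, responses at five concentrations were used to interpolate endpoints linearly. The concentration for 50% growth inhibition is given as GI50.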 The source made the active and inactive calls. Cut-off read from the data, not from the text of the source: active = GI50 up to about 1.1 µM and inactive = higher.
# Key:
# Assay in all cases: NCI anticancer screen, dose series, 48 h
# [1] = system: SNB-75
# [2] = system: HCT-15
# [3] = system: HCT-116
# [4] = system: OVCAR-3
# [5] = system: DU-145
# [6] = system: M14
# [7] = system: NCI/ADR-RES
# [8] = system: SF-295
# [9] = system: HOP-62
# [10] = system: NCI-H226
# [11] = system: A549
# [12] = system: SK-MEL-2
# [13] = system: RXF 393
# [14] = system: UACC-257
# [15] = system: SK-MEL-5
# [16] = system: SF-539
# [17] = system: NCI-H460
# [18] = system: K562
# [19] = system: COLO 205
# [20] = system: MOLT-4
# [21] = system: A498
# [22] = system: MDA-N
# [23] = system: LOX IMVI
# [24] = system: SK-MEL-28
# [25] = system: MDA-MB-231
# [26] = system: SF-268
# [27] = system: UACC-62
# [28] = system: EKVX
# [29] = system: T47D
# [30] = system: NCI-H23
# [31] = system: KM12
# [32] = system: CCRF-CEM
# [33] = system: PC-3
# [34] = system: OVCAR-5
# [35] = system: HCC 2998
# [36] = system: OVCAR-8
# [37] = system: ACHN
# [38] = system: OVCAR-4
# [39] = system: NCI-H522
# [40] = system: SN12C
# [41] = system: Malme-3M
# [42] = system: U-251
# [43] = system: MDA-MB-435
# [44] = system: Hs-578T
# [45] = system: SNB-19
# [46] = system: UO-31
# [47] = system: MCF7
# [48] = system: HL-60
# [49] = system: SW-620
# [50] = system: IGROV-1
# [51] = system: 786-0
# [52] = system: TK-10
# [53] = system: RPMI-8226
# [54] = system: SK-OV-3
# [55] = system: HT-29
# [56] = system: SR
# [57] = system: CAKI-1
structure (smiles),measurement,setting,value
CCCCCCCCNC(=S)N/C=C1\C(=O)Oc2ccccc2C1=O,GI50,[1],14.2 µM (inactive)
same,GI50,[2],12.2 µM
same,GI50,[3],15.6 µM (inactive)
same,GI50,[4],12.6 µM (inactive)
same,GI50,[5],19.2 µM (inactive)
same,GI50,[6],19.3 µM (inactive)
same,GI50,[7],19 µM (inactive)
same,GI50,[8],14.1 µM (inactive)
same,GI50,[9],13.5 µM (inactive)
same,GI50,[10],23.8 µM (inactive)
same,GI50,[11],17.2 µM (inactive)
same,GI50,[12],22.5 µM (inactive)
same,GI50,[13],16 µM (inactive)
same,GI50,[14],19.1 µM (inactive)
same,GI50,[15],15.3 µM (inactive)
same,GI50,[16],17.6 µM (inactive)
same,GI50,[17],14.4 µM (inactive)
same,GI50,[18],16.3 µM (inactive)
same,GI50,[19],15 µM (inactive)
same,GI50,[20],12.4 µM (inactive)
same,GI50,[21],16 µM (inactive)
same,GI50,[22],18.1 µM (inactive)
same,GI50,[23],7.05 µM (inactive)
same,GI50,[24],16.1 µM (inactive)
same,GI50,[25],15.9 µM (inactive)
same,GI50,[26],10 µM (inactive)
same,GI50,[27],6.85 µM (inactive)
same,GI50,[28],28.2 µM (inactive)
same,GI50,[29],65.8 µM (inactive)
same,GI50,[30],21.1 µM (inactive)
same,GI50,[31],13.6 µM (inactive)
same,GI50,[32],11.1 µM (inactive)
same,GI50,[33],14.4 µM (inactive)
same,GI50,[34],12.6 µM (inactive)
same,GI50,[35],11.4 µM (inactive)
same,GI50,[36],19.5 µM (inactive)
same,GI50,[37],14.8 µM (inactive)
same,GI50,[38],13.2 µM (inactive)
same,GI50,[39],7.19 µM (inactive)
same,GI50,[40],19.8 µM (inactive)
CC(=O)OC1CC2CCC1(C)C2(C)C (stereo not given),GI50,[1],> 100 µM (inactive)
same,GI50,[2],> 100 µM
same,GI50,[3],> 100 µM (inactive)
same,GI50,[4],> 100 µM (inactive)
same,GI50,[5],> 100 µM (inactive)
same,GI50,[6],> 100 µM (inactive)
same,GI50,[41],> 100 µM (inactive)
same,GI50,[7],> 100 µM (inactive)
same,GI50,[8],> 100 µM (inactive)
same,GI50,[9],> 100 µM (inactive)
same,GI50,[42],> 100 µM (inactive)
same,GI50,[10],> 100 µM (inactive)
same,GI50,[43],> 100 µM (inactive)
same,GI50,[44],> 100 µM (inactive)
same,GI50,[12],> 100 µM (inactive)
same,GI50,[45],> 100 µM (inactive)
same,GI50,[13],> 100 µM (inactive)
same,GI50,[14],> 100 µM (inactive)
same,GI50,[16],> 100 µM (inactive)
same,GI50,[46],> 100 µM (inactive)
same,GI50,[17],> 100 µM (inactive)
same,GI50,[18],> 100 µM (inactive)
same,GI50,[19],> 100 µM (inactive)
same,GI50,[20],> 100 µM (inactive)
same,GI50,[47],> 100 µM (inactive)
same,GI50,[48],> 100 µM (inactive)
same,GI50,[49],> 100 µM (inactive)
same,GI50,[50],> 100 µM (inactive)
same,GI50,[21],> 100 µM (inactive)
same,GI50,[22],> 100 µM (inactive)
same,GI50,[51],> 100 µM (inactive)
same,GI50,[23],> 100 µM (inactive)
same,GI50,[24],> 100 µM (inactive)
same,GI50,[25],> 100 µM (inactive)
same,GI50,[26],> 100 µM (inactive)
same,GI50,[52],> 100 µM (inactive)
same,GI50,[27],> 100 µM (inactive)
same,GI50,[53],> 100 µM (inactive)
same,GI50,[54],> 100 µM (inactive)
same,GI50,[29],> 100 µM (inactive)
same,GI50,[30],> 100 µM (inactive)
same,GI50,[31],> 100 µM (inactive)
same,GI50,[32],> 100 µM (inactive)
same,GI50,[33],> 100 µM (inactive)
same,GI50,[34],> 100 µM (inactive)
same,GI50,[35],> 100 µM (inactive)
same,GI50,[36],> 100 µM (inactive)
same,GI50,[37],> 100 µM (inactive)
same,GI50,[38],> 100 µM (inactive)
same,GI50,[55],> 100 µM (inactive)
same,GI50,[39],> 100 µM (inactive)
same,GI50,[40],> 100 µM (inactive)
Cc1ncc([N+](=O)[O-])n1CCn1ccnc1[N+](=O)[O-],GI50,[1],> 100 µM (inactive)
same,GI50,[2],> 100 µM
same,GI50,[3],> 100 µM (inactive)
same,GI50,[4],> 100 µM (inactive)
same,GI50,[41],72.1 µM (inactive)
same,GI50,[8],> 100 µM (inactive)
same,GI50,[9],> 100 µM (inactive)
same,GI50,[42],> 100 µM (inactive)
same,GI50,[56],> 100 µM (inactive)
same,GI50,[10],> 100 µM (inactive)
same,GI50,[44],> 100 µM (inactive)
same,GI50,[11],54.2 µM (inactive)
same,GI50,[12],58.6 µM (inactive)
same,GI50,[14],> 100 µM (inactive)
same,GI50,[15],38.3 µM (inactive)
same,GI50,[16],> 100 µM (inactive)
same,GI50,[17],> 100 µM (inactive)
same,GI50,[18],> 100 µM (inactive)
same,GI50,[20],> 100 µM (inactive)
same,GI50,[47],> 100 µM (inactive)
same,GI50,[48],> 100 µM (inactive)
same,GI50,[49],74.6 µM (inactive)
same,GI50,[21],61.9 µM (inactive)
same,GI50,[51],> 100 µM (inactive)
same,GI50,[24],> 100 µM (inactive)
same,GI50,[26],> 100 µM (inactive)
same,GI50,[52],15.7 µM (inactive)
same,GI50,[53],> 100 µM (inactive)
same,GI50,[28],35.2 µM (inactive)
same,GI50,[30],> 100 µM (inactive)
same,GI50,[31],> 100 µM (inactive)
same,GI50,[32],> 100 µM (inactive)
same,GI50,[33],80.9 µM (inactive)
same,GI50,[34],> 100 µM (inactive)
same,GI50,[35],> 100 µM (inactive)
same,GI50,[36],34.8 µM (inactive)
same,GI50,[37],> 100 µM (inactive)
same,GI50,[55],> 100 µM (inactive)
same,GI50,[39],> 100 µM (inactive)
same,GI50,[40],61.7 µM (inactive)
CC(=O)OCC1OC(O[C@@H]2C[C@H]3C(C)(C)[C@H](OC(C)=O)CC[C@]3(C)[C@H]3CC[C@@H]4[C@]5(CC[C@@]4(C)[C@@]32C)O[C@@H]([C@H](O)C(C)(C)O)C[C@@H]5C)C(O)C(O)C1O (stereo not given in full),GI50,[42],6.05 µM (inactive)
same,GI50,[13],4.4 µM (inactive)
same,GI50,[57],3.23 µM (inactive)

# — ChEMBL document CHEMBL1201862, “PubChem BioAssay data set” (2004)
